Laboratory results as given in patent US20260250289A1, “BICYCLIC HETEROCYCLES AND THEIR USE AS WRN INHIBITORS” (Novartis AG, priority 2022, published 2026).

Legend:
[1] = molecular target: T1, WRN helicase (aa N517-P1238) (Homo sapiens, UniProt Q14191); assay: WRN ATPase assay (DNA dependent ATP hydrolysis, ADP-Glo); type: biochemical; conditions: 3 hours pre-incubation, 300 micromolar ATP, FLAP26 DNA; geometric mean of at least 2
T1 construct: The core helicase motif of the WRN protein (aa N517-P1238) was produced for this assay; His (N); ZZ (N); 3C protease cleavage site (N); made in house; host or cells: Sf21 insect cells (baculovirus; virus and BIICs made in SF9)
T1 sequence (Q14191 517-1238): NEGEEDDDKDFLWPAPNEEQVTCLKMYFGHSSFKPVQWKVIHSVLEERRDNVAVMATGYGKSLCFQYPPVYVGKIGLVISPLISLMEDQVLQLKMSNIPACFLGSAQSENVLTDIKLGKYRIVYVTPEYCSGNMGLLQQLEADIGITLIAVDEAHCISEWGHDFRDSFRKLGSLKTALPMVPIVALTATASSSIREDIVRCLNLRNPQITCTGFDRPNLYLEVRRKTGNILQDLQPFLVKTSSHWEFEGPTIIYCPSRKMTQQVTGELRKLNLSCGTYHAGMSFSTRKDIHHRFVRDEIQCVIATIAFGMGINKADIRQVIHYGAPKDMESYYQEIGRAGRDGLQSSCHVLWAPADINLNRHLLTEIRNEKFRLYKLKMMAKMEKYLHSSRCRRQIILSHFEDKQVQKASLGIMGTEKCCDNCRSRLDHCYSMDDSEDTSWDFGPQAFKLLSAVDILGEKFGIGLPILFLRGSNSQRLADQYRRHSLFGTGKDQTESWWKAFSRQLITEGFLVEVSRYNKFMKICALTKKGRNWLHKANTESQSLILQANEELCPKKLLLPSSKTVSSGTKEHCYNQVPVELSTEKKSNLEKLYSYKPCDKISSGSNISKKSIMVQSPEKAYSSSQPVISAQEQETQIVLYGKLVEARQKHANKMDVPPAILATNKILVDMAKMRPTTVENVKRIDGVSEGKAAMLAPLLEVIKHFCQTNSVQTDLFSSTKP
Procedure, shortened: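 DNA-dependent ATP hydrolysis detected as ADP by ADP-Glo luminescence, using 300 μM ATP, 0.2 nM FLAP26 substrate and 10 nM WRN aa N517-P1238 (Tris pH 7.5 buffer, 2 mM MgCl2, 50 mM NaCl). IC50s fitted from normalized duplicate half-log dilutions; reported as geometric means of at least 2 replicates.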

DLD1-WRN-KO cells = assay: Proliferation assay DLD1-WRN-KO (CellTiterGlo, off-target effects); type: cell-based; conditions: 96 hours, geometric mean of at least 2
Procedure, shortened: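 DLD1 cells with CRISPR knockout of WRN were exposed overnight-seeded to eight 3-fold compound dilutions (0.1% DMSO) for 96 h at 37 °C. Viability was read as ATP by CellTiterGlo luminescence against a day-0 plate, giving GI50 and residual viability at top concentration.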

SW48 cells = assay: Proliferation assay SW48 (CellTiterGlo); type: cell-based; conditions: Homo sapiens, SW48, 96 h, SW48 colon carcinoma cells, 96 hours, CellTiterGlo; geometric mean of at least 2; read-out: Proliferation Assay SW48 GI50
Procedure, shortened: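 SW48 cells, 2,000/well, treated after overnight seeding with eight 3-fold compound dilutions (0.1% DMSO) for 96 hours at 37° C. Viability read as ATP by CellTiterGlo luminescence, normalised to a day-0 plate and vehicle to give % growth; GI50 is geometric mean of ≥2 independent replicates.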

Structure (SMILES)	IC50 [1] [µM]	GI50 (DLD1-WRN-KO cells) [µM]	GI50 (SW48 cells) [µM]
CCc1ccc(NC(=O)Cn2c(C)c(N3CCN(C(C)=O)CC3)c(=O)n3nc(C4=CCCCO4)nc23)cc1Cl [Example 31, 2-(6-(4-acetylpiperazin-1-yl)-2-(3,4-dihydro-2H-pyran-6-yl)-5-methyl-7-oxo-[1,2,4]triazolo[1,5-a]pyrimidin-4(7H)-yl)-N-(3-chloro-4-ethylphenyl)acetamide]	0.2	> 10	6
CCc1c(N2CCN(C(=O)c3c(O)ccc4cccnc34)CC2)c(=O)n2nc(C3=CCOCC3)nc2n1CC(=O)Nc1ccc(C(F)(F)F)cc1 [Example 14, 2-(2-(3,6-dihydro-2H-pyran-4-yl)-5-ethyl-6-(4-(7-hydroxyquinoline-8-carbonyl)piperazin-1-yl)-7-oxo-[1,2,4]triazolo[1,5-a]pyrimidin-4(7H)-yl)-N-(4-(trifluoromethyl)phenyl)acetamide]	0.04	> 10	0.2
CC(=O)N1CCN(c2c(C)n(CC(=O)Nc3ccc(C(F)(F)F)cc3)c3nc(-c4cnn(C(F)F)c4)nn3c2=O)CC1 [Example 128, 2-(6-(4-acetylpiperazin-1-yl)-2-(1-(difluoromethyl)-1H-pyrazol-4-yl)-5-methyl-7-oxo-[1,2,4]triazolo[1,5-a]pyrimidin-4(7H)-yl)-N-(4-(trifluoromethyl)phenyl)acetamide]	0.8	> 10	7
[2H]C([2H])(C(=O)Nc1ccc(C(F)(F)F)cc1)n1c(CC)c(N2CCN(C(C)=O)CC2)c(=O)n2nc(C3=CCOCC3)nc12 [Example 82, 2-(6-(4-acetylpiperazin-1-yl)-2-(3,6-dihydro-2H-pyran-4-yl)-5-ethyl-7-oxo-[1,2,4]triazolo[1,5-a]pyrimidin-4(7H)-yl)-N-(4-(trifluoromethyl)phenyl)acetamide-2,2-d2]	0.3	> 10	2
CCc1c(C2=CCN(C(C)=O)CC2)c(=O)n2nc(C3=CCCCO3)nc2n1CC(=O)Nc1ccc(C(F)(F)F)cc1 [Example 142, 2-(6-(1-acetyl-1,2,3,6-tetrahydropyridin-4-yl)-2-(3,4-dihydro-2H-pyran-6-yl)-5-ethyl-7-oxo-[1,2,4]triazolo[1,5-a]pyrimidin-4(7H)-yl)-N-(4-(trifluoromethyl)phenyl)acetamide]	0.6	> 10	5
CC(=O)N1CCN(c2nc3n(CC(=O)Nc4ccc(Cl)cc4)c(C)c(N4CCN(C(=O)c5ccncc5O)CC4)c(=O)n3n2)CC1 [Example 2, 2-(2-(4-acetylpiperazin-1-yl)-6-(4-(3-hydroxyisonicotinoyl)piperazin-1-yl)-5-methyl-7-oxo-[1,2,4]triazolo[1,5-a]pyrimidin-4(7H)-yl)-N-(4-chlorophenyl)acetamide]	0.3	> 10	> 10
CC(=O)N1CCN(c2c(C)n(CC(=O)Nc3ccc(C(F)(F)F)cc3)c3nc(C4=CCC(N5CC(F)(F)C5)CC4)nn3c2=O)CC1 (stereo not drawn) [Example 114, 2-(6-(4-acetylpiperazin-1-yl)-2-(4-(3,3-difluoroazetidin-1-yl)cyclohex-1-en-1-yl)-5-methyl-7-oxo-[1,2,4]triazolo[1,5-a]pyrimidin-4(7H)-yl)-N-(4-(trifluoromethyl)phenyl) acetamide]	0.4	> 10	2
CCc1c(C2=CCN(C(C)=O)CC2)c(=O)n2nc(C3=CCC(OC)CC3)nc2n1CC(=O)Nc1ccc(C(F)(F)F)cc1 (stereo not drawn) [Example 140, 2-(6-(1-acetyl-1,2,3,6-tetrahydropyridin-4-yl)-5-ethyl-2-(4-methoxycyclohex-1-en-1-yl)-7-oxo-[1,2,4]triazolo[1,5-a]pyrimidin-4(7H)-yl)-N-(4-(trifluoromethyl)phenyl)acetamide]	0.1	> 10	4
CC(=O)N1CCN(c2c(C)n(CC(=O)Nc3ccc(Cl)cc3)c3nc(C4=CCCCO4)nn3c2=O)CC1 [Example 79, 2-(6-(4-acetylpiperazin-1-yl)-2-(3,4-dihydro-2H-pyran-6-yl)-5-methyl-7-oxo-[1,2,4]triazolo[1,5-a]pyrimidin-4(7H)-yl)-N-(4-chlorophenyl)acetamide]	0.2	> 10	5
CC(=O)N1CCN(c2c(C)n(CC(=O)Nc3cc(F)c(C(F)(F)F)cc3Cl)c3nc(C4=CCOCC4)nn3c2=O)CC1 [Example 91, 2-(6-(4-acetylpiperazin-1-yl)-2-(3,6-dihydro-2H-pyran-4-yl)-5-methyl-7-oxo-[1,2,4]triazolo[1,5-a]pyrimidin-4(7H)-yl)-N-(2-chloro-5-fluoro-4-(trifluoromethyl)phenyl)acetamide]	0.7	> 10	3

Other lines, results leading:

IC50 [1] [µM]	GI50 (DLD1-WRN-KO cells) [µM]	GI50 (SW48 cells) [µM]	Structure (SMILES)
1	> 10	6	CCON1CCN(c2nc3n(CC(=O)Nc4ccc(C(F)(F)F)cc4)c(C)c(N4CCN(C(C)=O)CC4)c(=O)n3n2)CC1 [Example 131, 2-(6-(4-acetylpiperazin-1-yl)-2-(4-ethoxypiperazin-1-yl)-5-methyl-7-oxo-[1,2,4]triazolo[1,5-a]pyrimidin-4(7H)-yl)-N-(4-(trifluoromethyl)phenyl)acetamide]
1	> 10	5	CC(=O)N1CCN(c2c(C)n(CC(=O)Nc3ccc(C(F)(F)F)cc3)c3nc(N4CCCC(F)C4)nn3c2=O)CC1 (stereo not drawn) [Example 1, 2-(6-(4-acetylpiperazin-1-yl)-2-(3-fluoropiperidin-1-yl)-5-methyl-7-oxo-[1,2,4]triazolo[1,5-a]pyrimidin-4(7H)-yl)-N-(4-(trifluoromethyl)phenyl)acetamide]
0.6	> 10	6	Cc1c(N2CCN(C(=O)c3ncccc3N)CC2)c(=O)n2nc(N3CCOCC3)nc2n1CC(=O)Nc1ccc(C(F)(F)F)cc1 [Example 160, 2-(6-(4-(3-aminopicolinoyl)piperazin-1-yl)-5-methyl-2-morpholino-7-oxo-[1,2,4]triazolo[1,5-a]pyrimidin-4(7H)-yl)-N-(4-(trifluoromethyl)phenyl)acetamide]
0.7	> 10	5	CC(=O)N1CCN(c2c(C)n(CC(=O)Nc3ccc(C(F)(F)F)cc3)c3nc(N4CCC5(CCCO5)CC4)nn3c2=O)CC1 [Example 122, 2-(6-(4-acetylpiperazin-1-yl)-5-methyl-7-oxo-2-(1-oxa-8-azaspiro[4.5]decan-8-yl)-[1,2,4]triazolo[1,5-a]pyrimidin-4(7H)-yl)-N-(4-(trifluoromethyl)phenyl)acetamide]
0.05	8	0.9	Cc1c(N2CCN(C(=O)c3cc(F)ccc3O)CC2)c(=O)n2nc(C3=CCOCC3)nc2n1CC(=O)Nc1ccc(C(F)(F)F)cc1 [Example 17, 2-(2-(3,6-dihydro-2H-pyran-4-yl)-6-(4-(5-fluoro-2-hydroxybenzoyl)piperazin-1-yl)-5-methyl-7-oxo-[1,2,4]triazolo[1,5-a]pyrimidin-4(7H)-yl)-N-(4-(trifluoromethyl)phenyl)acetamide]
0.1	> 10	> 10	Cc1c(N2CCN(C(=O)c3cccnc3O)CC2)c(=O)n2nc(C3=CCOCC3)nc2n1CC(=O)Nc1ccc(C(F)(F)F)cc1 [Example 48, 2-(2-(3,6-dihydro-2H-pyran-4-yl)-6-(4-(2-hydroxynicotinoyl)piperazin-1-yl)-5-methyl-7-oxo-[1,2,4]triazolo[1,5-a]pyrimidin-4(7H)-yl)-N-(4-(trifluoromethyl)phenyl)acetamide]
0.09	> 10	2	Cc1c(N2CCN(C(=O)c3ccc(F)c(F)c3O)CC2)c(=O)n2nc(N3CCOCC3)nc2n1CC(=O)Nc1ccc(C(F)(F)F)cc1 [Example 150, 2-(6-(4-(3,4-difluoro-2-hydroxybenzoyl)piperazin-1-yl)-5-methyl-2-morpholino-7-oxo-[1,2,4]triazolo[1,5-a]pyrimidin-4(7H)-yl)-N-(4-(trifluoromethyl)phenyl)acetamide]
0.1	> 10	> 10	Cc1c(N2CCN(C(=O)c3c[nH]c(=O)cn3)CC2)c(=O)n2nc(N3CCOCC3)nc2n1CC(=O)Nc1ccc(C(F)(F)F)cc1 [Example 166, 2-(5-methyl-2-morpholino-7-oxo-6-(4-(5-oxo-4,5-dihydropyrazine-2-carbonyl)piperazin-1-yl)-[1,2,4]triazolo[1,5-a]pyrimidin-4(7H)-yl)-N-(4-(trifluoromethyl)phenyl)acetamide]
0.09	> 10	2	Cc1c(N2CCN(C(=O)c3c(O)cccc3Cl)CC2)c(=O)n2nc(C3=CCOCC3)nc2n1CC(=O)Nc1ccc(C(F)(F)F)cc1 [Example 149, 2-(6-(4-(2-chloro-6-hydroxybenzoyl)piperazin-1-yl)-2-(3,6-dihydro-2H-pyran-4-yl)-5-methyl-7-oxo-[1,2,4]triazolo[1,5-a]pyrimidin-4(7H)-yl)-N-(4-(trifluoromethyl)phenyl)acetamide]
